The record followed here is patent US20090105239A1, “2-PYRIDINE DERIVATIVES AS INHIBITORS OF NEUTROPHILE ELASTASE” (priority 2005, published 2009).

The target in the assay is T1, Human Neutrophil Elastase (HNE) (Homo sapiens, UniProt P08246).
T1 construct: Human Neutrophil Elastase (HNE) purified from serum; purchased Calbiochem 324681; host or cells: purified from human serum (so in the source)
T1 sequence (P08246 30-247 limits assumed): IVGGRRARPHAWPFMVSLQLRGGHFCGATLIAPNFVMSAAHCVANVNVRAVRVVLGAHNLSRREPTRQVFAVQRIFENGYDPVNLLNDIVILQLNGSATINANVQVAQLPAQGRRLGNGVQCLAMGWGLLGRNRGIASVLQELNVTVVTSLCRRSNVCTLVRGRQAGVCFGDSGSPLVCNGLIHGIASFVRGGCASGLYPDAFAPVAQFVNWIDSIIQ
The experiment in a line: Human Neutrophil Elastase Quenched-FRET Assay. The class given is biochemical. Particulars: HNE purified from serum 1.7 nM, substrate MeOSuc-AAPV-AMC 100 μM, 30 minutes at room temperature; read-out: Inhibition of Human Neutrophil Elastase IC50. As to the method:
Human Neutrophil Elastase Quenched-FRET Assay
HNE was stored in 50 mM sodium acetate (NaOAc), 200 mM sodium chloride (NaCl), pH 5.5 with added 30% glycerol at −20° C. […] The substrate was stored in dimethyl sulphoxide (DMSO) at −20° C. […] The assay buffer constitution was: 100 mM Tris(hydroxymethyl)aminomethane (TRIS) (pH 7.5) and 500 mM NaCl. The enzyme and the compounds were incubated at room temperature for 15 minutes. Then 30 μl substrate in assay buffer was added. The assay was incubated for 30 minutes at room temperature. […] The assay was then stopped by adding 60 μl stop solution (140 mM acetic acid, 200 mM sodium monochloroacetate, 60 mM sodium acetate, pH 4.3).
For `Cc1c([S+]([O-])c2ccc(C#N)cc2)cc(C(=O)NCC(C)O)c(=O)n1-c1cccc(C(F)(F)F)c1` (stereo not shown) [Example 49, 5-[(4-Cyanophenyl)sulfinyl]-N-(2-hydroxypropyl)-6-methyl-2-oxo-1-[3-(trifluoromethyl)phenyl]-1,2-dihydropyridine-3-carboxamide], the IC50 is 4 nM.

As for `Cc1c([S+]([O-])c2ccc(C#N)cc2)cc(C(=O)NCC2(O)CC2)c(=O)n1-c1cccc(C(F)(F)F)c1` (stereo not shown) [Example 27, 5-[(4-Cyanophenyl)sulfinyl]-N-[(1-hydroxycyclopropyl)methyl]-6-methyl-2-oxo-1-[3-(trifluoromethyl)phenyl]-1,2-dihydropyridine-3-carboxamide], the IC50 stood at 9 nM.

Take `CC(=O)Nc1ccc(S(=O)(=O)c2cc(C(=O)NCc3ccc(S(C)(=O)=O)cc3)c(=O)n(-c3cccc(C(F)(F)F)c3)c2C)cc1` [Example 59, 5-{[4-(Acetylamino)phenyl]sulfonyl}-6-methyl-N-[4-(methylsulfonyl)benzyl]-2-oxo-1-[3-(trifluoromethyl)phenyl]-1,2-dihydropyridine-3-carboxamide]: the IC50 was 14 nM.

In the case of `Cc1c(S(=O)(=O)O)cc(C(=O)NCc2ccc(S(C)(=O)=O)cc2)c(=O)n1-c1cccc(C(F)(F)F)c1` [Example 86, 2-Methyl-5-({[4-(methylsulfonyl)benzyl]amino}carbonyl)-6-oxo-1-[3-(trifluoromethyl)phenyl]-1,6-dihydropyridine-3-sulfonic acid], the IC50 came to 45 nM.

As usually defined, the IC50 is the concentration needed to halve the response being measured.
